Experiments:
Taselisib = compound: Cc1nc(-c2cn3c(n2)-c2ccc(-c4cnn(C(C)(C)C(N)=O)c4)cc2OCC3)n(C(C)C)n1 [Taselisib]; conditions: max 10 µM
Procedure, shortened: (§1)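 In 1536-well plates, cancer cell lines in 7.5 μl DMEM/F12 or RPMI with 10% FBS spent 24 hours at 37°C and 5% CO2 and were then dosed for 72 hours with final DMSO typically 0.2%. Viability was read by CellTiter-Glo 2.0 luminescence and scaled between blank-well and DMSO-well means. The single-agent IC50 was fitted from dose responses using a logistic curve in a non-linear mixed effects model, and that logistic curve had two parameters.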

Palbociclib = compound: CC(=O)c1c(C)c2cnc(Nc3ccc(N4CCNCC4)cn3)nc2n(C2CCCC2)c1=O [Palbociclib]; conditions: max 10 µM
Procedure, shortened: as §1

AZD8186 = compound: C[C@@H](Nc1cc(F)cc(F)c1)c1cc(C(=O)N(C)C)cc2c(=O)cc(N3CCOCC3)oc12 [AZD8186]; conditions: max 10 µM
Procedure, shortened: as §1

SRA737 = compound: N#Cc1cnc(Nc2cc(NC[C@H]3CNCCO3)c(C(F)(F)F)cn2)cn1 [SRA737]; conditions: max 10 µM
Procedure, shortened: as §1

SG3199 = compound: CC1=CN2[C@@H](C1)C=NC3=CC(=C(C=C3C2=O)OC)OCCCCCOC4=C(C=C5C(=C4)N=C[C@@H]6CC(=CN6C5=O)C)OC [SG3199]; conditions: max 0.001 µM
Procedure, shortened: as §1

AZD5153 = compound: COc1nnc2ccc(N3CCC(c4ccc(OCCN5CCN(C)C(=O)[C@H]5C)cc4)CC3)nn12 [AZD5153]; conditions: max 1 µM
Procedure, shortened: as §1

AZD2811 = compound: CCN(CCO)CCCOc1ccc2c(Nc3cc(CC(=O)Nc4cccc(F)c4)[nH]n3)ncnc2c1 [AZD2811]; conditions: max 1 µM
Procedure, shortened: as §1

AZD6738 = compound: C[C@@H]1COCCN1C2=NC(=NC(=C2)C3(CC3)[S@](=N)(=O)C)C4=C5C=CNC5=NC=C4 [AZD6738]; conditions: max 10 µM
Procedure, shortened: as §1

AZD5363 = compound: C1CN(CCC1(C(=O)N[C@@H](CCO)C2=CC=C(C=C2)Cl)N)C3=NC=NC4=C3C=CN4 [AZD5363]; conditions: max 10 µM
Procedure, shortened: as §1

Selumetinib = compound: Cn1cnc2c(F)c(Nc3ccc(Br)cc3Cl)c(C(=O)NOCCO)cc21 [Selumetinib]; conditions: max 10 µM
Procedure, shortened: as §1

Savolitinib = compound: C[C@@H](c1ccc2nccn2c1)n1nnc2ncc(-c3cnn(C)c3)nc21 [Savolitinib]; conditions: max 1 µM
Procedure, shortened: as §1

SN-38 = compound: CCc1c2c(nc3ccc(O)cc13)-c1cc3c(c(=O)n1C2)COC(=O)[C@]3(O)CC [SN-38]; conditions: max 0.3 µM
Procedure, shortened: as §1

AZD1775 = compound: C=CCn1c(=O)c2cnc(Nc3ccc(N4CCN(C)CC4)cc3)nc2n1-c1cccc(C(C)(C)O)n1 [AZD1775]; conditions: max 3 µM
Procedure, shortened: as §1

Doxorubicin = compound: COc1cccc2c1C(=O)c1c(O)c3c(c(O)c1C2=O)C[C@@](O)(C(=O)CO)C[C@@H]3O[C@H]1C[C@H](N)[C@H](O)[C@H](C)O1 [Doxorubicin]; conditions: max 1 µM
Procedure, shortened: as §1

AZD1390 = compound: CC(C)n1c(=O)n(C)c2cnc3cc(F)c(-c4ccc(OCCCN5CCCCC5)nc4)cc3c21 [AZD1390]; conditions: max 0.3 µM
Procedure, shortened: as §1

Lapatinib = compound: CS(=O)(=O)CCNCc1ccc(-c2ccc3ncnc(Nc4ccc(OCc5cccc(F)c5)c(Cl)c4)c3c2)o1 [Lapatinib]; conditions: max 10 µM
Procedure, shortened: as §1

Paclitaxel = compound: CC(=O)O[C@H]1C(=O)[C@@]2(C)[C@H]([C@H](OC(=O)c3ccccc3)[C@]3(O)C[C@H](OC(=O)[C@H](O)[C@@H](NC(=O)c4ccccc4)c4ccccc4)C(C)=C1C3(C)C)[C@]1(OC(C)=O)CO[C@@H]1C[C@@H]2O [Paclitaxel]; conditions: max 3 µM
Procedure, shortened: as §1

AZD7648 = compound: Cc1cc2ncnn2cc1Nc1ncc2c(n1)n(C1CCOCC1)c(=O)n2C [AZD7648]; conditions: max 10 µM
Procedure, shortened: as §1

[1] = compound: O=C(Nc1ccc2[nH]nc(-c3ccncc3)c2c1)[C@@H]1CCN(CC(=O)N2CCN(c3ccc(-c4ncccn4)cc3)CC2)C1; conditions: max 5 µM
Procedure, shortened: as §1

Alisertib = compound: COc1cc(Nc2ncc3c(n2)-c2ccc(Cl)cc2C(c2c(F)cccc2OC)=NC3)ccc1C(=O)O [Alisertib]; conditions: max 10 µM
Procedure, shortened: as §1

AZD4320 = compound: CN(CC[C@H](CSC1=CC=CC=C1)NC2=C(C=C(C=C2)S(=O)(=O)NC(=O)C3=CC=C(C=C3)N4CCC(CC4)[C@H](C5=CC=CC=C5C6=CC=C(C=C6)Cl)O)S(=O)(=O)C(F)(F)F)CCO [AZD4320]; conditions: max 1 µM
Procedure, shortened: as §1

AZD5991 = compound: Cc1c2c(nn1C)CSCc1cc(n(C)n1)CSc1cc(c3ccccc3c1)OCCCc1c(C(=O)O)n(C)c3c-2c(Cl)ccc13 [AZD5991]; conditions: max 1 µM
Procedure, shortened: as §1

Olaparib = compound: O=C(c1cc(Cc2n[nH]c(=O)c3ccccc23)ccc1F)N1CCN(C(=O)C2CC2)CC1 [Olaparib]; conditions: max 10 µM
Procedure, shortened: as §1

AZD0156 = compound: CN(C)CCCOc1ccc(-c2ccc3ncc4c(c3c2)n(C2CCOCC2)c(=O)n4C)cn1 [AZD0156]; conditions: max 3 µM
Procedure, shortened: as §1

Etoposide = compound: COc1cc([C@@H]2c3cc4c(cc3[C@@H](O[C@@H]3O[C@@H]5CO[C@@H](C)O[C@H]5[C@H](O)[C@H]3O)[C@H]3COC(=O)[C@H]23)OCO4)cc(OC)c1O [Etoposide]; conditions: max 10 µM
Procedure, shortened: as §1

Carboplatin = compound: C1CC(C1)(C(=O)[O-])C(=O)[O-].N.N.[Pt+2] [Carboplatin]; conditions: max 10 µM
Procedure, shortened: as §1

Prexasertib = compound: COc1cccc(OCCCN)c1-c1cc(Nc2cnc(C#N)cn2)n[nH]1 [Prexasertib]; conditions: max 1 µM
Procedure, shortened: as §1

Venetoclax = compound: CC1(C)CCC(CN2CCN(c3ccc(C(=O)NS(=O)(=O)c4ccc(NCC5CCOCC5)c([N+](=O)[O-])c4)c(Oc4cnc5[nH]ccc5c4)c3)CC2)=C(c2ccc(Cl)cc2)C1 [Venetoclax]; conditions: max 1 µM
Procedure, shortened: as §1

Trametinib = compound: CC(=O)Nc1cccc(-n2c(=O)n(C3CC3)c(=O)c3c(Nc4ccc(I)cc4F)n(C)c(=O)c(C)c32)c1 [Trametinib]; conditions: max 1 µM
Procedure, shortened: as §1

5-Fluorouracil = compound: O=c1[nH]cc(F)c(=O)[nH]1 [5-Fluorouracil]; conditions: max 20 µM
Procedure, shortened: as §1

Crizotinib = compound: C[C@@H](Oc1cc(-c2cnn(C3CCNCC3)c2)cnc1N)c1c(Cl)ccc(F)c1Cl [Crizotinib]; conditions: max 10 µM
Procedure, shortened: as §1

Dasatinib = compound: CC1=C(C(=CC=C1)Cl)NC(=O)C2=CN=C(S2)NC3=CC(=NC(=N3)C)N4CCN(CC4)CCO [Dasatinib]; conditions: max 2 µM
Procedure, shortened: as §1

Gemcitabine = compound: Nc1ccn([C@@H]2O[C@H](CO)[C@@H](O)C2(F)F)c(=O)n1 [Gemcitabine]; conditions: max 0.3 µM
Procedure, shortened: as §1

Gefitinib = compound: COc1cc2ncnc(Nc3ccc(F)c(Cl)c3)c2cc1OCCCN1CCOCC1 [Gefitinib]; conditions: max 10 µM
Procedure, shortened: as §1

MK-2206 = compound: NC1(c2ccc(-c3nc4ccn5c(=O)[nH]nc5c4cc3-c3ccccc3)cc2)CCC1 [MK-2206]; conditions: max 10 µM
Procedure, shortened: as §1

Cell Line | IC50, cell viability 72 h (Taselisib) [nM] | IC50, cell viability 72 h (Palbociclib) [nM] | IC50, cell viability 72 h (AZD8186) [nM] | IC50, cell viability 72 h (SRA737) [nM] | IC50, cell viability 72 h (SG3199) [nM] | IC50, cell viability 72 h (AZD5153) [nM] | IC50, cell viability 72 h (AZD2811) [nM] | IC50, cell viability 72 h (AZD6738) [nM] | IC50, cell viability 72 h (AZD5363) [nM] | IC50, cell viability 72 h (Selumetinib) [nM] | IC50, cell viability 72 h (Savolitinib) [nM] | IC50, cell viability 72 h (SN-38) [nM] | IC50, cell viability 72 h (AZD1775) [nM] | IC50, cell viability 72 h (Doxorubicin) [nM] | IC50, cell viability 72 h (AZD1390) [nM] | IC50, cell viability 72 h (Lapatinib) [nM] | IC50, cell viability 72 h (Paclitaxel) [nM] | IC50, cell viability 72 h (AZD7648) [nM] | IC50, cell viability 72 h [1] [nM] | IC50, cell viability 72 h (Alisertib) [nM] | IC50, cell viability 72 h (AZD4320) [nM] | IC50, cell viability 72 h (AZD5991) [nM] | IC50, cell viability 72 h (Olaparib) [nM] | IC50, cell viability 72 h (AZD0156) [nM] | IC50, cell viability 72 h (Etoposide) [nM] | IC50, cell viability 72 h (Carboplatin) [nM] | IC50, cell viability 72 h (Prexasertib) [nM] | IC50, cell viability 72 h (Venetoclax) [nM] | IC50, cell viability 72 h (Trametinib) [nM] | IC50, cell viability 72 h (5-Fluorouracil) [nM] | IC50, cell viability 72 h (Crizotinib) [nM] | IC50, cell viability 72 h (Dasatinib) [nM] | IC50, cell viability 72 h (Gemcitabine) [nM] | IC50, cell viability 72 h (Gefitinib) [nM] | IC50, cell viability 72 h (MK-2206) [nM]
MFH-ino (Other Solid Carcinomas) | > 10000 | > 10000 | > 10000 | > 10000 | > 1 | > 1000 | > 1000 | > 10000 | > 10000 | > 10000 | > 1000 | 39.8 | > 3000 | > 1000 | > 300 | > 10000 | 1270 | > 10000 | 3670 | > 10000 | > 1000 | > 1000 | > 10000 | > 3000 | > 10000 | > 10000 | > 1000 | > 1000 | > 1000 | > 20000 | > 10000 | > 2000 | 71.7 | > 10000 | > 10000
NALM-6 (B-Lymphoblastic Leukemia) | 293 | 1410 | 1220 | 2310 | > 1 | 31.9 | 57 | 1050 | 1370 | > 10000 | > 1000 | 5.89 | 509 | 106 | > 300 | 8220 | 5.65 | > 10000 | > 5000 | 238 | 146 | > 1000 | > 10000 | > 3000 | 302 | > 10000 | 11.7 | 380 | > 1000 | > 20000 | 1170 | 1140 | 3.63 | > 10000 | 816

— the supplement of paper PMC11061612
